Laboratory results published in ChEMBL document CHEMBL1201862, “PubChem BioAssay data set” (2004).
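Interpolation was linear, between the two tested concentrations surrounding the appropriate level; five concentrations were tested over 48 hours in 96-well plates. At the GI50, growth is halved.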 The source made the active and inactive calls. Rule as the data show it: active = GI50 up to about 1.1 µM and inactive = higher.

Key:
Assay in all cases: DTP human tumour cell line panel, 48 h
CCRF-CEM = tested on: CCRF-CEM
HCC 2998 = tested on: HCC 2998
HCT-116 = tested on: HCT-116
HOP-62 = tested on: HOP-62
HT-29 = tested on: HT-29
K562 = tested on: K562
LXFL 529 = tested on: LXFL 529
M14 = tested on: M14
MOLT-4 = tested on: MOLT-4
Malme-3M = tested on: Malme-3M
OVCAR-5 = tested on: OVCAR-5
RPMI-8226 = tested on: RPMI-8226
RXF 393 = tested on: RXF 393
SF-268 = tested on: SF-268
SK-MEL-2 = tested on: SK-MEL-2
SN12C = tested on: SN12C
SNB-19 = tested on: SNB-19
UACC-62 = tested on: UACC-62
BT-549 = tested on: BT-549
CAKI-1 = tested on: CAKI-1

Measured: GI50

COc1ccc(C2NC(c3ccc(OC)cc3)C(C)C(=O)C2C)cc1 (centres undefined)
inactive: CCRF-CEM > 100 µM | HCC 2998 > 100 µM | HCT-116 91.8 µM | HOP-62 > 100 µM | HT-29 > 100 µM | K562 42.7 µM | LXFL 529 > 100 µM | M14 > 100 µM | MOLT-4 46.7 µM | Malme-3M > 100 µM | OVCAR-5 23.4 µM | RPMI-8226 34.2 µM | RXF 393 > 100 µM | SF-268 > 100 µM | SK-MEL-2 > 100 µM | SN12C > 100 µM | SNB-19 > 100 µM | UACC-62 > 100 µM

CC(=O)c1sc2c(c1OC(=O)c1ccccc1)c(=O)n(-c1ccccc1)c(=S)n2-c1ccccc1
inactive: BT-549 > 10 µM | CAKI-1 8.43 µM | CCRF-CEM 2.51 µM | HCC 2998 17.3 µM | HCT-116 13.4 µM | HOP-62 15 µM | HT-29 2.93 µM | K562 17.4 µM | M14 3.4 µM | MOLT-4 2.26 µM | Malme-3M 2.46 µM | OVCAR-5 3.82 µM | RPMI-8226 3.12 µM | RXF 393 2.86 µM | SF-268 4.97 µM | SK-MEL-2 2.79 µM | SN12C 5.78 µM | SNB-19 4.84 µM | UACC-62 13.4 µM

O=C(NCCOCCO)c1ccc(O)cc1
inactive: CCRF-CEM > 100 µM | HCT-116 > 100 µM | HOP-62 > 100 µM | K562 > 100 µM | LXFL 529 > 100 µM | M14 > 100 µM | MOLT-4 > 100 µM | RPMI-8226 > 100 µM | RXF 393 > 100 µM | SF-268 > 100 µM | SN12C > 100 µM | UACC-62 > 100 µM

CC(=O)C1=C(O)/C(=C\c2ccco2)OC1=O
inactive: BT-549 > 10 µM | CAKI-1 > 10 µM | CCRF-CEM > 10 µM | HCC 2998 > 10 µM | HCT-116 > 10 µM | HOP-62 > 10 µM | HT-29 > 10 µM | K562 > 10 µM | M14 > 10 µM | MOLT-4 > 10 µM | Malme-3M > 10 µM | OVCAR-5 > 10 µM | RPMI-8226 > 10 µM | RXF 393 > 10 µM | SF-268 > 10 µM | SK-MEL-2 > 10 µM | SN12C > 10 µM | SNB-19 > 10 µM | UACC-62 > 10 µM

NC(=O)Nc1c([N+](=O)[O-])cc(C(F)(F)F)cc1[N+](=O)[O-]
inactive: CAKI-1 > 100 µM | CCRF-CEM > 100 µM | HCT-116 59.4 µM | HOP-62 > 100 µM | HT-29 33.7 µM | K562 56.2 µM | LXFL 529 > 100 µM | M14 > 100 µM | MOLT-4 > 100 µM | OVCAR-5 > 100 µM | RPMI-8226 > 100 µM | RXF 393 > 100 µM | SF-268 > 100 µM | SK-MEL-2 > 100 µM | SN12C > 100 µM | SNB-19 > 100 µM | UACC-62 19.4 µM

CC1(C)CCC(Sc2ccccc2)O1 (centres undefined)
inactive: CAKI-1 > 100 µM | CCRF-CEM > 100 µM | HCC 2998 > 100 µM | HCT-116 > 100 µM | HOP-62 > 100 µM | K562 > 100 µM | LXFL 529 > 100 µM | M14 > 100 µM | MOLT-4 > 100 µM | RPMI-8226 > 100 µM | RXF 393 > 100 µM | SF-268 > 100 µM | SK-MEL-2 > 100 µM | SN12C > 100 µM | SNB-19 > 100 µM | UACC-62 > 100 µM

Cc1cc(C)nc(NS(=O)(=O)c2ccc(Nc3c4ccc(Cl)cc4nc4c(C(=O)Nc5ccc(S(N)(=O)=O)cc5)cccc34)cc2)n1
inactive: CCRF-CEM 25.1 µM | HCC 2998 16.6 µM | HCT-116 16.6 µM | HOP-62 14.1 µM | HT-29 24 µM | K562 25.1 µM | LXFL 529 23.8 µM | M14 17.4 µM | MOLT-4 9.77 µM | Malme-3M 33 µM | OVCAR-5 14.7 µM | RPMI-8226 21.5 µM | RXF 393 13.3 µM | SF-268 39.2 µM | SN12C 15 µM | SNB-19 24.6 µM | UACC-62 25 µM

O=C1OC(/C=C/c2ccccc2)C(=O)C1=O (centres undefined)
inactive: CCRF-CEM > 100 µM | HCC 2998 > 100 µM | HOP-62 > 100 µM | HT-29 > 100 µM | K562 > 100 µM | LXFL 529 > 100 µM | M14 > 100 µM | MOLT-4 > 100 µM | Malme-3M > 100 µM | OVCAR-5 > 100 µM | RPMI-8226 > 100 µM | RXF 393 > 100 µM | SF-268 > 100 µM | SK-MEL-2 > 100 µM | SNB-19 > 100 µM | UACC-62 > 100 µM
